According to ChEMBL document CHEMBL4308841, “Synthesis, in vitro antiproliferative activity, and kinase inhibitory effects of pyrazole-containing diarylureas and diarylamides” (Eur J Med Chem, 2018):

How the values were obtained:
[1] = system: CCRF-CEM; experiment: Growth inhibition of human CCRF-CEM cells assessed as cell growth at 10 uM incubated for 48 hrs by sulforhodamine B assay relative to control; assay type: functional; conditions: read-out: Activity
[2] = system: DU-145; experiment: Growth inhibition of human DU145 cells assessed as cell growth at 10 uM incubated for 48 hrs by sulforhodamine B assay relative to control; assay type: functional; conditions: DU-145, 48 h, read-out: Activity
[3] = system: PC-3; experiment: Growth inhibition of human PC3 cells assessed as cell growth at 10 uM incubated for 48 hrs by sulforhodamine B assay relative to control; assay type: functional; conditions: PC-3, 48 h, read-out: Activity
[4] = system: OVCAR-8; experiment: Growth inhibition of human OVCAR8 cells assessed as cell growth at 10 uM incubated for 48 hrs by sulforhodamine B assay relative to control; assay type: functional; conditions: OVCAR-8, 48 h, read-out: Activity
[5] = system: HCT-116; experiment: Growth inhibition of human HCT116 cells assessed as cell growth at 0.01 uM incubated for 48 hrs by sulforhodamine B assay relative to control; assay type: functional; conditions: HCT-116, 48 h, read-out: Activity
[6] = system: SK-MEL-5; experiment: Growth inhibition of human SK-MEL-5 cells assessed as cell growth at 10 uM incubated for 48 hrs by sulforhodamine B assay relative to control; assay type: functional; conditions: SK-MEL-5, 48 h, read-out: Activity
[7] = system: Hs-578T; experiment: Growth inhibition of human Hs578T cells assessed as cell growth at 0.1 uM incubated for 48 hrs by sulforhodamine B assay relative to control; assay type: functional; conditions: read-out: Activity
[8] = system: SN12C; experiment: Growth inhibition of human SN12C cells assessed as cell growth at 10 uM incubated for 48 hrs by sulforhodamine B assay relative to control; assay type: functional; conditions: read-out: Activity
[9] = system: NCI-H522; experiment: Growth inhibition of human NCI-H522 cells incubated for 48 hrs by sulforhodamine B assay; assay type: functional, cell-based; conditions: NCI-H522, 48 h
[10] = system: UO-31; experiment: Growth inhibition of human UO31 cells assessed as cell growth at 0.01 uM incubated for 48 hrs by sulforhodamine B assay relative to control; assay type: functional; conditions: UO-31, 48 h, read-out: Activity
[11] = system: HOP-62; experiment: Growth inhibition of human HOP62 cells assessed as cell growth at 10 uM incubated for 48 hrs by sulforhodamine B assay relative to control; assay type: functional; conditions: HOP-62, 48 h, read-out: Activity
[12] = system: MOLT-4; experiment: Growth inhibition of human MOLT4 cells assessed as cell growth at 10 uM incubated for 48 hrs by sulforhodamine B assay relative to control; assay type: functional; conditions: MOLT-4, 48 h, read-out: Activity
[13] = system: MDA-MB-435; experiment: Growth inhibition of human MDA-MB-435 cells assessed as cell growth at 100 uM incubated for 48 hrs by sulforhodamine B assay relative to control; assay type: functional; conditions: MDA-MB-435, 48 h, read-out: Activity
[14] = system: Malme-3M; experiment: Growth inhibition of human MALME-3M cells assessed as cell growth at 10 uM incubated for 48 hrs by sulforhodamine B assay relative to control; assay type: functional; conditions: read-out: Activity
[15] = system: SK-MEL-28; experiment: Growth inhibition of human SK-MEL-28 cells assessed as cell growth at 10 uM incubated for 48 hrs by sulforhodamine B assay relative to control; assay type: functional; conditions: SK-MEL-28, 48 h, read-out: Activity
[16] = system: MCF7; experiment: Growth inhibition of human MCF7 cells assessed as cell growth at 10 uM incubated for 48 hrs by sulforhodamine B assay relative to control; assay type: functional; conditions: MCF7, 48 h, read-out: Activity
[17] = system: A549; experiment: Growth inhibition of human A549/ATCC cells assessed as cell growth at 10 uM incubated for 48 hrs by sulforhodamine B assay relative to control; assay type: functional; conditions: A549, 48 h, read-out: Activity
[18] = system: NCI-H322M; experiment: Growth inhibition of human NCI-H322M cells assessed as cell growth at 10 uM incubated for 48 hrs by sulforhodamine B assay relative to control; assay type: functional; conditions: read-out: Activity
[19] = system: HCT-15; experiment: Growth inhibition of human HCT15 cells assessed as cell growth at 10 uM incubated for 48 hrs by sulforhodamine B assay relative to control; assay type: functional; conditions: HCT-15, 48 h, read-out: Activity
[20] = system: T47D; experiment: Growth inhibition of human T47D cells incubated for 48 hrs by sulforhodamine B assay; assay type: functional, cell-based
[21] = system: SF-268; experiment: Growth inhibition of human SF268 cells assessed as cell growth at 0.1 uM incubated for 48 hrs by sulforhodamine B assay relative to control; assay type: functional; conditions: SF-268, 48 h, read-out: Activity
[22] = system: UACC-257; experiment: Growth inhibition of human UACC257 cells assessed as cell growth at 10 uM incubated for 48 hrs by sulforhodamine B assay relative to control; assay type: functional; conditions: UACC-257, 48 h, read-out: Activity
[23] = system: UO-31; experiment: Growth inhibition of human UO31 cells assessed as cell growth at 10 uM incubated for 48 hrs by sulforhodamine B assay relative to control; assay type: functional; conditions: UO-31, 48 h, read-out: Activity
[24] = system: 786-0; experiment: Growth inhibition of human 786-0 cells assessed as cell growth at 10 uM incubated for 48 hrs by sulforhodamine B assay relative to control; assay type: functional; conditions: 786-0, 48 h, read-out: Activity
[25] = system: COLO 205; experiment: Growth inhibition of human COLO205 cells assessed as cell growth at 10 uM incubated for 48 hrs by sulforhodamine B assay relative to control; assay type: functional; conditions: COLO 205, 48 h, read-out: Activity
[26] = system: UACC-62; experiment: Growth inhibition of human UACC62 cells assessed as cell growth at 0.01 uM incubated for 48 hrs by sulforhodamine B assay relative to control; assay type: functional; conditions: UACC-62, 48 h, read-out: Activity
[27] = system: A498; experiment: Growth inhibition of human A498 cells assessed as cell growth at 10 uM incubated for 48 hrs by sulforhodamine B assay relative to control; assay type: functional; conditions: A498, 48 h, read-out: Activity
[28] = system: NCI/ADR-RES; experiment: Growth inhibition of human NCI/ADR-RES cells assessed as cell growth at 10 uM incubated for 48 hrs by sulforhodamine B assay relative to control; assay type: functional; conditions: read-out: Activity
[29] = system: SNB-75; experiment: Growth inhibition of human SNB75 cells assessed as cell growth at 0.1 uM incubated for 48 hrs by sulforhodamine B assay relative to control; assay type: functional; conditions: SNB-75, 48 h, read-out: Activity
[30] = system: NCI-H23; experiment: Growth inhibition of human NCI-H23 cells assessed as cell growth at 10 uM incubated for 48 hrs by sulforhodamine B assay relative to control; assay type: functional; conditions: NCI-H23, 48 h, read-out: Activity
[31] = system: HCT-116; experiment: Growth inhibition of human HCT116 cells assessed as cell growth at 0.1 uM incubated for 48 hrs by sulforhodamine B assay relative to control; assay type: functional; conditions: HCT-116, 48 h, read-out: Activity
[32] = system: SR; experiment: Growth inhibition of human SR cells incubated for 48 hrs by sulforhodamine B assay; assay type: functional, cell-based
[33] = read-out: LC50 (the source's name)
[34] = read-out: pLC50 (the source's name) (converted)

In the case of `COc1cc(Cl)cc(-c2nn(-c3cccc(NC(=O)c4cccc(C(F)(F)F)c4)c3)cc2-c2ccncc2)c1`, the growth at 10 µM [1] is reported as 42.3%, the growth at 10 µM [2] is reported as 83.8% and the growth at 10 µM [3] is reported as 23.1%. It also gave a growth at 10 µM [4] of 42%, a growth at 0.01 µM [5] of 100% and a growth at 10 µM [6] of 70.7%. For the same compound, the growth at 0.1 µM [7] was 89%, the growth at 10 µM [8] was 65.8% and the GI50 ([9]; read-out: GI50) was 1.9 µM. The CC50 [9, 33] was greater than 100 µM, the TGI ([9]; read-out: TGI) was greater than 100 µM and the GI50 ([9]; read-out: pGI50 (converted)) was 2 µM. It also gave a CC50 [9, 34] greater than 100 µM, a TGI ([9]; read-out: pTGI (converted)) greater than 100 µM and a growth at 0.01 µM [10] of 58%. The growth at 10 µM [11] was 71.6%, the growth at 10 µM [12] was 29% and the growth at 100 µM [13] was 52%. For the same compound, the growth at 10 µM [14] was 92.4%, the growth at 10 µM [15] was 70.3% and the growth at 10 µM [16] was 39.4%. It also gave a growth at 10 µM [17] of 39.1%, a growth at 10 µM [18] of 78.6% and a growth at 10 µM [19] of 33.2%. It also gave a GI50 ([20]; read-out: GI50) of 4.59 µM, a CC50 [20, 33] greater than 100 µM and a TGI ([20]; read-out: TGI) greater than 100 µM. It also gave a GI50 ([20]; read-out: pGI50 (converted)) of 4.68 µM, a CC50 [20, 34] greater than 100 µM and a TGI ([20]; read-out: pTGI (converted)) greater than 100 µM. The growth at 0.1 µM [21] was 100%, the growth at 10 µM [22] was 68.7% and the growth at 10 µM [23] was 37.2%. For the same compound, the growth at 10 µM [24] was 66.6%, the growth at 10 µM [25] was 68.5% and the growth at 0.01 µM [26] was 98%. It also gave a growth at 10 µM [27] of 21.2%, a growth at 10 µM [28] of 46.6% and a growth at 0.1 µM [29] of 54%. The growth at 10 µM [30] was 55.6%, the growth at 0.1 µM [31] was 94% and the GI50 ([32]; read-out: GI50) was 2.48 µM. The CC50 [32, 33] was greater than 100 µM, the TGI ([32]; read-out: TGI) was greater than 100 µM and the GI50 ([32]; read-out: pGI50 (converted)) was 3.09 µM. For the same compound, the CC50 [32, 34] was greater than 100 µM and the TGI ([32]; read-out: pTGI (converted)) was greater than 100 µM.
`COc1cc(Cl)cc(-c2nn(-c3cccc(NC(=O)Nc4ccc(Cl)c(Cl)c4)c3)cc2-c2ccncc2)c1` gave a growth at 10 µM [1] of 5.73%, a growth at 10 µM [2] of 12.1% and a growth at 10 µM [3] of -5.03%. For the same compound, the growth at 10 µM [4] was 1.93%, the growth at 0.01 µM [5] was 105% and the growth at 10 µM [6] was 3.51%. It also gave a growth at 0.1 µM [7] of 97%, a growth at 10 µM [8] of 15.5% and a GI50 ([9]; read-out: GI50) of 1.29 µM. It also gave a CC50 [9, 33] greater than 100 µM, a TGI ([9]; read-out: TGI) of 44.8 µM and a GI50 ([9]; read-out: pGI50 (converted)) of 1.29 µM. It also gave a CC50 [9, 34] greater than 100 µM, a TGI ([9]; read-out: pTGI (converted)) of 4.47 µM and a growth at 0.01 µM [10] of 89%. It also gave a growth at 10 µM [11] of 15.7%, a growth at 10 µM [12] of -16.1% and a growth at 100 µM [13] of -33%. The growth at 10 µM [14] was -19.8%, the growth at 10 µM [15] was 23.2% and the growth at 10 µM [16] was 4.66%. The growth at 10 µM [17] was 11.3%, the growth at 10 µM [18] was 32.3% and the growth at 10 µM [19] was 13.9%. For the same compound, the GI50 ([20]; read-out: GI50) was 2.78 µM, the CC50 [20, 33] was greater than 100 µM and the TGI ([20]; read-out: TGI) was 15.9 µM. For the same compound, the GI50 ([20]; read-out: pGI50 (converted)) was 2.75 µM, the CC50 [20, 34] was greater than 100 µM and the TGI ([20]; read-out: pTGI (converted)) was 19.1 µM. For the same compound, the growth at 0.1 µM [21] was 95%, the growth at 10 µM [22] was -11.4% and the growth at 10 µM [23] was 0.64%. For the same compound, the growth at 10 µM [24] was 19.6%, the growth at 10 µM [25] was -70.3% and the growth at 0.01 µM [26] was 95%. It also gave a growth at 10 µM [27] of -9.54%, a growth at 10 µM [28] of 8.59% and a growth at 0.1 µM [29] of 90%. The growth at 10 µM [30] was 5.72%, the growth at 0.1 µM [31] was 100% and the GI50 ([32]; read-out: GI50) was 1.54 µM. The CC50 [32, 33] was greater than 100 µM, the TGI ([32]; read-out: TGI) was 53 µM and the GI50 ([32]; read-out: pGI50 (converted)) was 1.55 µM. For the same compound, the CC50 [32, 34] was greater than 100 µM and the TGI ([32]; read-out: pTGI (converted)) was 5.75 µM.
